Laboratory results from patent US8592470B2 (Eisai R&D Management Co., Ltd., priority 2012, dated 2013).

Columns and labels:
CYP1A2 [1] = target: T1, CYP1A2 (Homo sapiens, UniProt P05177); experiment: Time-dependent CYP inhibition (Method 1), human hepatic microsome; assay type: in vitro ADME; conditions: 30 min pre-incubation at 37° C., phenacetin, average, n = 2
T1 construct: human hepatic microsomal fraction containing CYP; from tissue; host or cells: human liver microsomes
T1 sequence (P05177 1-516): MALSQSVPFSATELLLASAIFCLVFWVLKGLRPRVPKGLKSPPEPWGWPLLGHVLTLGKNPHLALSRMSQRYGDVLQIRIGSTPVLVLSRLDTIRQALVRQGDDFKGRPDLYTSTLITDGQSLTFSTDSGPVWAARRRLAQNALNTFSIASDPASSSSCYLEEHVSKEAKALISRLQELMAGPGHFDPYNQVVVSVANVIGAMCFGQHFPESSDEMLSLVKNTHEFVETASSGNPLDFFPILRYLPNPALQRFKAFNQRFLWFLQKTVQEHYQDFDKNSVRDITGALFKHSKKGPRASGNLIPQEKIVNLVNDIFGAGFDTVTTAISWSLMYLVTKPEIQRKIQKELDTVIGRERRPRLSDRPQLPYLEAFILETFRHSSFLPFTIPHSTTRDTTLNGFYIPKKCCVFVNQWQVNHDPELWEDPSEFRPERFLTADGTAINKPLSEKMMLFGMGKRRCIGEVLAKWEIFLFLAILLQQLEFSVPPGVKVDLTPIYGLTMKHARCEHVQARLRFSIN
Experimental: (§1) Competitive inhibition of CYP was also tested as Method 2. […] The test substance was added to an enzyme solution (containing human hepatic microsome (0.2 mg/mL), 100 mM Kpi and 0.1 mM EDTA), and pre-incubated for 30 minutes at 37° C. in the presence of or absence of the coenzyme. The final concentration of the test substance was set at 0.1, 0.2, 0.4, 0.5, 1, 2, 10 or 50 μM. A NADPH generating system (60 mM MgCl2 solution containing 3.6 mM β-NADP^+, 90 mM glucose-6-phosphate and 1 Unit/mL glucose-6-phosphate dehydrogenase, incubated for 5 minutes to generate NADPH) was used as the coenzyme. After pre-incubation, part of the reaction solution was collected, diluted 10 times by mixing with a model substrate solution and the NADPH generating system, and then incubated for 10 minutes at 37° C. An equal amount of a mixed solution of acetonitrile and methanol (1:1, containing 0.05 μM dextrophan or 0.05 μM propranolol as an internal standard) was added to terminate the reaction, and metabolites of the model substrate in the reaction solution were measured by LC-MS/MS. A similar test was also performed with no test substance added as a control test. The ratio relative to the amount of model substrate metabolites in the control test was given as residual activity. The ratio of residual activity in the presence of NADPH relative to residual activity in the absence of NADPH was evaluated, and the ratio of 80% or less was defined “+”, while the ratio of above 80% was defined as “−”. [table]

CYP2C9 [2] = target: T2, CYP2C9 (Homo sapiens, UniProt P11712); experiment: as above; assay type: in vitro ADME; conditions: 30 min pre-incubation at 37° C., tolbutamide, average, n = 2
T2 construct: human hepatic microsomal fraction containing CYP; from tissue; host or cells: human liver microsomes
T2 sequence (P11712 whole entry): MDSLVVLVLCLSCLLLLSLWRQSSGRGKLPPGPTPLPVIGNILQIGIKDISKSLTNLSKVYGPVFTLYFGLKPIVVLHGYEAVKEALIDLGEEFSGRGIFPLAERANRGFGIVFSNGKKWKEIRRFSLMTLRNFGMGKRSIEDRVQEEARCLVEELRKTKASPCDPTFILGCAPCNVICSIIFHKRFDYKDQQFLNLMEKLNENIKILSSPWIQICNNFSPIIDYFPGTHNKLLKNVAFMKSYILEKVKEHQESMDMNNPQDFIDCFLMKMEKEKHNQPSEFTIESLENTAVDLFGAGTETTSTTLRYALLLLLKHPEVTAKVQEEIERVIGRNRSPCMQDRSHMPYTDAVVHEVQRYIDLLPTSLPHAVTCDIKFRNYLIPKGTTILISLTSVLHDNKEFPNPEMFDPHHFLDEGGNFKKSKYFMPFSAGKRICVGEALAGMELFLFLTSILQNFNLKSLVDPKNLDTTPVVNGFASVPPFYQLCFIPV
Experimental: as §1

CYP2D6 [3] = target: T3, CYP2D6 (Homo sapiens, UniProt P10635); experiment: as above; assay type: in vitro ADME; conditions: 30 min pre-incubation at 37° C., bufuralol, average, n = 2
T3 construct: human hepatic microsomal fraction containing CYP; from tissue; host or cells: human liver microsomes
T3 sequence (P10635 whole entry): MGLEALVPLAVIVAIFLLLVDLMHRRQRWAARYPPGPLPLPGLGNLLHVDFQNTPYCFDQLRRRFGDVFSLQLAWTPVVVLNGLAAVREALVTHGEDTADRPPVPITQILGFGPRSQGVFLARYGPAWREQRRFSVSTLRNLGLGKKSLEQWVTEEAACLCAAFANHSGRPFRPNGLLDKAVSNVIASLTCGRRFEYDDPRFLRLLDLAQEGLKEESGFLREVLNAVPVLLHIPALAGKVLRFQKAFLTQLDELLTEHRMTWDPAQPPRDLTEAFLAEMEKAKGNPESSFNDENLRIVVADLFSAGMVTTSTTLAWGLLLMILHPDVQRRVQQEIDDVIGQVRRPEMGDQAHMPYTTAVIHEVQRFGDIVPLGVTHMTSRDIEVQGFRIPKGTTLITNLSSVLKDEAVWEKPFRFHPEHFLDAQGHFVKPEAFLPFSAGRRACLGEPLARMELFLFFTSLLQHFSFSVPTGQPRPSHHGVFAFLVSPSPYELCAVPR
Experimental: as §1

CYP3A4 [4] = target: T4, CYP3A4 (Homo sapiens, UniProt P08684); experiment: as above; assay type: in vitro ADME; conditions: 30 min pre-incubation at 37° C., midazolam, average, n = 2
T4 construct: human hepatic microsomal fraction containing CYP; from tissue; host or cells: human liver microsomes
T4 sequence (P08684 whole entry): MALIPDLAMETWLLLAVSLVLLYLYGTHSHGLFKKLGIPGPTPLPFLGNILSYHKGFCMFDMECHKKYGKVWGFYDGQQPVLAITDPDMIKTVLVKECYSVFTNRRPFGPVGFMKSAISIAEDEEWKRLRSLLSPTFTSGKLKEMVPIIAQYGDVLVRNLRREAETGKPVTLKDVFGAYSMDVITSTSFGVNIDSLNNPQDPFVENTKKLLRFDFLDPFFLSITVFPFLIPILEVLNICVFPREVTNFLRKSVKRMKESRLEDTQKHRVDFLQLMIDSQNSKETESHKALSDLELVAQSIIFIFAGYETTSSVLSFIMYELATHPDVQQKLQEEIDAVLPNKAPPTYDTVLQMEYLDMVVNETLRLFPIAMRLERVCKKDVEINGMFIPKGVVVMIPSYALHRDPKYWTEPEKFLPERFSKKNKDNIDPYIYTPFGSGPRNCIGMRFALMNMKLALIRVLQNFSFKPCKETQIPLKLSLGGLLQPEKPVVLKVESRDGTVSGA
Experimental: as §1

CYP2C19 [5] = target: T5, CYP2C19 (Homo sapiens, UniProt P33261); experiment: as above; assay type: in vitro ADME; conditions: 30 min pre-incubation at 37° C., S-mephenytoin, average, n = 2
T5 construct: human hepatic microsomal fraction containing CYP; from tissue; host or cells: human liver microsomes
T5 sequence (P33261 whole entry): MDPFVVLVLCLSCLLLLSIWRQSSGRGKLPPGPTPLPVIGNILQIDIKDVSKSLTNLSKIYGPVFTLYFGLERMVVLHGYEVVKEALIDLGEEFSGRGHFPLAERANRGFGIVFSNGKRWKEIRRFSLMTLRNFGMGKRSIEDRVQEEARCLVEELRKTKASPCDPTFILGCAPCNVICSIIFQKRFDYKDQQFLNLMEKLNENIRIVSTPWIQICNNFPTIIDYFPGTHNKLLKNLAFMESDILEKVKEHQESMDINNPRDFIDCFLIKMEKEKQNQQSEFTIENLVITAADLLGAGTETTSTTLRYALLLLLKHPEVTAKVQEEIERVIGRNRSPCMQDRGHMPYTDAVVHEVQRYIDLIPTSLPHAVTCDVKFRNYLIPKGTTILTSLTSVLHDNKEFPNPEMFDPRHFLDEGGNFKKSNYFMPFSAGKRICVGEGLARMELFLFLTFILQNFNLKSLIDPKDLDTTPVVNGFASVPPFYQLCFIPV

[6] = target: T6, endothelin receptor A (EDNRA) (Homo sapiens, UniProt P25101); experiment: Suppression of endothelin-induced Ca2+ elevation in EDNRA/293 cells; assay type: cell-based; conditions: 0.03, 0.1 or 0.3 nM endothelin, FIG. 2 and FIG. 3
T6 construct: The protein coding region of human derived EDNRA (gene number NM_001957.2) was transduced; expressed in transfected cells
T6 sequence (P25101 21-427): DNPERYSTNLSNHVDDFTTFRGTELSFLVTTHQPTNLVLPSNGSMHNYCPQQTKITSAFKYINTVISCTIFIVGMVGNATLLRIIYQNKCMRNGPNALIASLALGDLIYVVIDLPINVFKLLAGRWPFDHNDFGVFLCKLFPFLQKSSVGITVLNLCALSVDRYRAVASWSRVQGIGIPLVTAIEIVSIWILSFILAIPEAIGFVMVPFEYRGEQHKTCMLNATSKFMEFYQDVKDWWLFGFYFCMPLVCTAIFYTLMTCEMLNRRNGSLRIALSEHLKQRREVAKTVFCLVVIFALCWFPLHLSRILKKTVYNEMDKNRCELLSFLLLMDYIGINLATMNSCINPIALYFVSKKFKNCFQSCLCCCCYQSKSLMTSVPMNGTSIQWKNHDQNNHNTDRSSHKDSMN
From the text: The protein coding region of human derived EDNRA (gene number NM_001957.2) was transduced into HEK-293 (Human Embryonic Kidney, ATCC No. CRL-1573) cells with a murine leukemia retrovirus vector, to prepare a cell line stably expressing EDNRA (EDNRA/293 cells). DMEM (Dulbecco's Modified Eagle Medium) supplemented with 10% fetal bovine serum and penicillin and streptomycin was used as the culture medium.
One day before measurement, the EDNRA/293 cells were inoculated on a 384-well plate at 5000 cells/well. On the day of measurement, a fluorescent reagent for calcium measurement (Calcium4, Molecular Device) dissolved in Hanks balanced buffer solution was added to each well, and allowed standing for about 1 hour.
Endothelin, an EDNRA ligand (activator) was applied to the wells not treated with the specimens, and the resulting activation (calcium elevation) reaction was detected by a measuring instrument (FDSS7000, Hamamatsu Photonics) to obtain a dose-dependent activation reaction as shown in FIG. 1. At doses of 1 nM or more, the activation reaction became almost saturated. For this reason, the doses of endothelin used for detection in the suppression reactions below were set at 0.03, 0.1 or 0.3 nM.

CYP1A2 [7] = target: T1, CYP1A2; experiment: Competitive CYP inhibition (Method 2), human hepatic microsome; assay type: in vitro ADME; conditions: phenacetin 10 μM, n = 2, read-out: IC50 score, CYP1A2
Experimental: (§2) The test substance was added at a final concentration of 1 or 10 μM to an enzyme solution (containing human hepatic microsome (0.2 mg/mL), 100 mM Kpi and 0.1 mM EDTA) containing a model substrate solution, and incubated for 10 minutes at 37° C. in the presence of an NADPH generating system. An equal amount of a mixed solution of acetonitrile and methanol (1:1, containing 0.05 μM dextrophan or 0.05 μM propranolol as an internal standard) was added to terminate the reaction, and metabolites of the model substrate in the reaction solution were measured by LC-MS/MS. A similar test was performed without addition of the test substance as a control test. The inhibition rate was determined from the amounts of model substrate metabolites with and without addition of the test substance at each test substance concentration, and the IC50 value was calculated from the inhibition rate (calculation method in accordance with Xenobiotica, 1999, 29(1), 53-75). […] [table]

CYP2C9 [8] = target: T2, CYP2C9; experiment: as above; assay type: in vitro ADME; conditions: human liver microsomes, probe tolbutamide 100 μM, n = 2, read-out: IC50 score, CYP2C9
Experimental: as §2

CYP2C19 [9] = target: T5, CYP2C19; experiment: as above; assay type: in vitro ADME; conditions: S-mephenytoin 40 μM, n = 2, read-out: IC50 score, CYP2C19
Experimental: as §2

CYP2D6 [10] = target: T3, CYP2D6; experiment: as above; assay type: in vitro ADME; conditions: bufuralol 10 μM, n = 2, read-out: IC50 score, CYP2D6
Experimental: as §2

CYP3A4 [11] = target: T4, CYP3A4; experiment: as above; assay type: in vitro ADME; conditions: midazolam 3 μM, n = 2, read-out: IC50 score, CYP3A4
Experimental: The inhibition rate was determined from the amounts of model substrate metabolites with and without addition of the test substance at each test substance concentration, and the IC50 value was calculated from the inhibition rate (calculation method in accordance with Xenobiotica, 1999, 29(1), 53-75).

Suppression of activation (calcium elevation) reaction by endothelin [6]	IC50 (CYP1A2 [7])	IC50 at 10 min (CYP2C9 [8])	IC50 (CYP2C19 [9])	IC50 (CYP2D6 [10])	IC50 (CYP3A4 [11])	SMILES	Ratio of residual CYP1A2 activity in presence of NADPH relative to absence of NADPH (CYP1A2 [1]; test substance 10 μM)	Ratio of residual CYP1A2 activity in presence of NADPH relative to absence of NADPH (CYP1A2 [1]; test substance 50 μM)	Ratio of residual CYP2C9 activity in presence of NADPH relative to absence of NADPH (CYP2C9 [2]; test substance 10 μM)	Ratio of residual CYP2C9 activity in presence of NADPH relative to absence of NADPH (CYP2C9 [2]; test substance 50 μM)	Ratio of residual CYP2D6 activity in presence of NADPH relative to absence of NADPH (CYP2D6 [3]; test substance 10 μM)	Ratio of residual CYP2D6 activity in presence of NADPH relative to absence of NADPH (CYP2D6 [3]; test substance 50 μM)	Ratio of residual CYP3A4 activity in presence of NADPH relative to absence of NADPH (CYP3A4 [4]; test substance 10 μM)	Ratio of residual CYP3A4 activity in presence of NADPH relative to absence of NADPH (CYP3A4 [4]; test substance 50 μM)	Ratio of residual CYP2C19 activity in presence of NADPH relative to absence of NADPH (CYP2C19 [5]; test substance 10 μM)	Ratio of residual CYP2C19 activity in presence of NADPH relative to absence of NADPH (CYP2C19 [5]; test substance 50 μM)
suppressed the activation reaction	> 10 µM	< 1 µM	> 10 µM	> 10 µM	> 10 µM	Cc1cc2c(cc1CC(=O)c1sccc1S(=O)(=O)Nc1onc(C)c1Cl)COC2 [Example 1, N-(4-chloro-3-methyl-1,2-oxazol-5-yl)-2-[2-(6-methyl-1,3-dihydro-2-benzofuran-5-yl)acetyl]thiophene-3-sulfonamide]	− (the ratio of above 80% was defined as “−”)	− (the ratio of above 80% was defined as “−”)	− (the ratio of above 80% was defined as “−”)	− (the ratio of above 80% was defined as “−”)	− (the ratio of above 80% was defined as “−”)	− (the ratio of above 80% was defined as “−”)	− (the ratio of above 80% was defined as “−”)	+ (the ratio of 80% or less was defined “+”)	− (the ratio of above 80% was defined as “−”)	− (the ratio of above 80% was defined as “−”)
suppressed the activation reaction	> 10 µM	< 1 µM	1 to 10 µM	> 10 µM		Cc1cc2c(cc1CC(=O)c1sccc1S(=O)(=O)Nc1onc(C)c1Cl)OCO2 [Sitaxentan, N-(4-chloro-3-methyl-1,2-oxazol-5-yl)-2-[2-(6-methyl-2H-1,3-benzodioxol-5-yl)acetyl]thiophene-3-sulfonamide, reference compound]										
